Reference: publication doi:10.1101/2023.10.20.563248v1 (biorxiv, 2023)

How the values were obtained:
Settings in all cases: 1 µM; inhibitor
ACVR2A = ACVR2A (Homo sapiens, UniProt P27037)
BTK = BTK (Homo sapiens, UniProt Q06187)
CAMK2B = CAMK2B (Homo sapiens, UniProt Q13554)
CDK10 = CDK10 (Homo sapiens, UniProt Q15131)
CDK6/CycD3 = CDK6/CycD3 (Homo sapiens, UniProt Q00534)
CDK7 = CDK7 (Homo sapiens, UniProt P50613)
CK1d = CK1d (Homo sapiens, UniProt P48730)
DAPK3 = DAPK3 (Homo sapiens, UniProt O43293)
EIF2AK2 = EIF2AK2 (Homo sapiens, UniProt P19525)
EPHB3 = EPHB3 (Homo sapiens, UniProt P54753)
FGR = FGR (Homo sapiens, UniProt P09769)
GRK2 = GRK2 (Homo sapiens, UniProt P25098)
IGF1R = IGF1R (Homo sapiens, UniProt P08069)
IRAK4 = IRAK4 (Homo sapiens, UniProt Q9NWZ3)
MAPKAPK5 = MAPKAPK5 (Homo sapiens, UniProt Q8IW41)
MARK1 = MARK1 (Homo sapiens, UniProt Q9P0L2)
MEKK2 = MEKK2 (Homo sapiens, UniProt Q9Y2U5)
MEKK3 = MEKK3 (Homo sapiens, UniProt Q99759)
MELK = MELK (Homo sapiens, UniProt Q14680)
MINK1 = MINK1 (Homo sapiens, UniProt Q8N4C8)
MKK7 = MKK7 (Homo sapiens, UniProt O14733)
MST2 = MST2 (Homo sapiens, UniProt Q13188)
MYLK3 = MYLK3 (Homo sapiens, UniProt Q32MK0)
PAK1 = PAK1 (Homo sapiens, UniProt Q13153)
PAK6 = PAK6 (Homo sapiens, UniProt Q9NQU5)
SGK2 = SGK2 (Homo sapiens, UniProt Q9HBY8)
SRPK1 = SRPK1 (Homo sapiens, UniProt Q96SB4)
TGFBR1 = TGFBR1 (Homo sapiens, UniProt P36897)
TLK2 = TLK2 (Homo sapiens, UniProt Q86UE8)
TXK = TXK (Homo sapiens, UniProt P42681)
ZAP70 = ZAP70 (Homo sapiens, UniProt P43403)

Chain of ACVR2A (P27037 whole entry): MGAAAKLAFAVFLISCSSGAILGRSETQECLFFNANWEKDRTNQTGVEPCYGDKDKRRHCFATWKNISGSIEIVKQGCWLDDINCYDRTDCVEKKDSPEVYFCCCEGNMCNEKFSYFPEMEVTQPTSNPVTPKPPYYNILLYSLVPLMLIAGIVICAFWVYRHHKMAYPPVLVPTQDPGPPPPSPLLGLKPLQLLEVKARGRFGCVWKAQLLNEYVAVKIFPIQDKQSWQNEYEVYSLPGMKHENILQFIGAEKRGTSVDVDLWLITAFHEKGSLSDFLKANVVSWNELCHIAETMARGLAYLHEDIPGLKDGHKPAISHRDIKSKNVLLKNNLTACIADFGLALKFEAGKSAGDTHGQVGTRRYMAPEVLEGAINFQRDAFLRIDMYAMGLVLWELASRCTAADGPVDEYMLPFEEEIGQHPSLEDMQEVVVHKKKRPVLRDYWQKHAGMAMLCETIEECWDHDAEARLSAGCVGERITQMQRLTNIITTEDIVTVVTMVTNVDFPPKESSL
Chain of TGFBR1 (P36897 whole entry): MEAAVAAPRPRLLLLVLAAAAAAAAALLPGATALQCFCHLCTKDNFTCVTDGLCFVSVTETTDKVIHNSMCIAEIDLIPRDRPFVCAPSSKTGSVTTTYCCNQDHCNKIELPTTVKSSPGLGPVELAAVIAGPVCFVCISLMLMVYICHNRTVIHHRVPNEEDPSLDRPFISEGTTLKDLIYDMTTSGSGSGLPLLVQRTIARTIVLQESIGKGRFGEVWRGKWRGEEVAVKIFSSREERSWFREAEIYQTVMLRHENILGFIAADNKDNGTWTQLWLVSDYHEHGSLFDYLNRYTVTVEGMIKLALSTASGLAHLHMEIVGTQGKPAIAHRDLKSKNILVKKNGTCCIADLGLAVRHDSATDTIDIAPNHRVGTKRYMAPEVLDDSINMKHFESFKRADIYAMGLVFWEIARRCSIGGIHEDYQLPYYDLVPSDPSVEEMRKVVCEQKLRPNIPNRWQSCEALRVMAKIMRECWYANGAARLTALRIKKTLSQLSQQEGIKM
Chain of MYLK3 (Q32MK0 whole entry): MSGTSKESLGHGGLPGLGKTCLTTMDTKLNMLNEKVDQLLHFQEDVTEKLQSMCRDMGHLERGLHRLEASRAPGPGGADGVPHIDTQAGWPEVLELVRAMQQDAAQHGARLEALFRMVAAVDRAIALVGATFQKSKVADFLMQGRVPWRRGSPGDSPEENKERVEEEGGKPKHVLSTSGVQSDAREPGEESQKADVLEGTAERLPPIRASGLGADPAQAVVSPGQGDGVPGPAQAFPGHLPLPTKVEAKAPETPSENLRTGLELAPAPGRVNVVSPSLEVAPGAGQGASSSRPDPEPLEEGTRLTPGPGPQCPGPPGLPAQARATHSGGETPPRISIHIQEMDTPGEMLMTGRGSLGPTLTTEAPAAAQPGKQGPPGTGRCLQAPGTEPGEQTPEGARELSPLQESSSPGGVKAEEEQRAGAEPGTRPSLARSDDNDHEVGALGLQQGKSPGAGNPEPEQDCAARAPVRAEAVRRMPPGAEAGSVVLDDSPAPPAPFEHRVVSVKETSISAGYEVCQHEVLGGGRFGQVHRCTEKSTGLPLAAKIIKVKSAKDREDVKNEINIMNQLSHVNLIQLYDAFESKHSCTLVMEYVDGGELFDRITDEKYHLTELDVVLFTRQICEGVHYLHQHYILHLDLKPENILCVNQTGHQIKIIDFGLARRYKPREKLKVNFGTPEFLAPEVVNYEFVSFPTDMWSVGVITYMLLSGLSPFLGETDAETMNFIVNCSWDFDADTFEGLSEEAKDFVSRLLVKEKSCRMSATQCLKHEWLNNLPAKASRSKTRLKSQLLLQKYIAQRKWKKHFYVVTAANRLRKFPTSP
Chain of MEKK3 (Q99759 whole entry): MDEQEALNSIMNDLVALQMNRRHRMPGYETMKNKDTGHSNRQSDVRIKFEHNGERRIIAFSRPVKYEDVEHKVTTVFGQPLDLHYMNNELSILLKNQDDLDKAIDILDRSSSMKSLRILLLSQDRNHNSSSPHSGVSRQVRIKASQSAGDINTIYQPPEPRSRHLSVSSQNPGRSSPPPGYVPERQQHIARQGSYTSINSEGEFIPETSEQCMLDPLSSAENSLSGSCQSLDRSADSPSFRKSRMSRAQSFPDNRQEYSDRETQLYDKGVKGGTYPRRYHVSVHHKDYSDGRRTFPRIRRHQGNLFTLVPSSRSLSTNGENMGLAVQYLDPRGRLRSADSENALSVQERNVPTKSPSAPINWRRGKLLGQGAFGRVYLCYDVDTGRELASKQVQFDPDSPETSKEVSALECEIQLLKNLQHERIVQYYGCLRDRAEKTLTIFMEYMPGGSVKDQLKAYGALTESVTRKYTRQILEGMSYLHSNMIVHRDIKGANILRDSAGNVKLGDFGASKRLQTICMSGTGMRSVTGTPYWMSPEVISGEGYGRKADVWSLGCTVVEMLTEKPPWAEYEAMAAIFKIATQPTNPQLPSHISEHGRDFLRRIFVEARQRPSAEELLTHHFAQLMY
Chain of BTK (Q06187 whole entry): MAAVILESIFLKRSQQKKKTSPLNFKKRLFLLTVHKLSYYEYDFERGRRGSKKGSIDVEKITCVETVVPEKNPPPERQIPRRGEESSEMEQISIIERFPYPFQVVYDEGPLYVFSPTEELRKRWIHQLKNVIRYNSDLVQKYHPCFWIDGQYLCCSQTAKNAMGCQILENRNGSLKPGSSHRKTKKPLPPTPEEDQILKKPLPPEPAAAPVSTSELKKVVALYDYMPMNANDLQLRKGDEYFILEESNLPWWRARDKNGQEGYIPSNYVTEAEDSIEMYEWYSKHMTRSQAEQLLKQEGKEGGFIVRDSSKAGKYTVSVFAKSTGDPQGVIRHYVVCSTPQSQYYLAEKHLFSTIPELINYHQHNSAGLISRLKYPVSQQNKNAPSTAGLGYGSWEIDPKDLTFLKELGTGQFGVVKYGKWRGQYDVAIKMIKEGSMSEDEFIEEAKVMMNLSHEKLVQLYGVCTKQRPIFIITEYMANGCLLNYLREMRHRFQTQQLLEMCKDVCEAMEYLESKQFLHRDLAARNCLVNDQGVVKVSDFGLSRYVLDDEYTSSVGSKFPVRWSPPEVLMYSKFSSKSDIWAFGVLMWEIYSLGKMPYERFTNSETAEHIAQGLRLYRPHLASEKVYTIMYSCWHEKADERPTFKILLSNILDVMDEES
Chain of TLK2 (Q86UE8 whole entry): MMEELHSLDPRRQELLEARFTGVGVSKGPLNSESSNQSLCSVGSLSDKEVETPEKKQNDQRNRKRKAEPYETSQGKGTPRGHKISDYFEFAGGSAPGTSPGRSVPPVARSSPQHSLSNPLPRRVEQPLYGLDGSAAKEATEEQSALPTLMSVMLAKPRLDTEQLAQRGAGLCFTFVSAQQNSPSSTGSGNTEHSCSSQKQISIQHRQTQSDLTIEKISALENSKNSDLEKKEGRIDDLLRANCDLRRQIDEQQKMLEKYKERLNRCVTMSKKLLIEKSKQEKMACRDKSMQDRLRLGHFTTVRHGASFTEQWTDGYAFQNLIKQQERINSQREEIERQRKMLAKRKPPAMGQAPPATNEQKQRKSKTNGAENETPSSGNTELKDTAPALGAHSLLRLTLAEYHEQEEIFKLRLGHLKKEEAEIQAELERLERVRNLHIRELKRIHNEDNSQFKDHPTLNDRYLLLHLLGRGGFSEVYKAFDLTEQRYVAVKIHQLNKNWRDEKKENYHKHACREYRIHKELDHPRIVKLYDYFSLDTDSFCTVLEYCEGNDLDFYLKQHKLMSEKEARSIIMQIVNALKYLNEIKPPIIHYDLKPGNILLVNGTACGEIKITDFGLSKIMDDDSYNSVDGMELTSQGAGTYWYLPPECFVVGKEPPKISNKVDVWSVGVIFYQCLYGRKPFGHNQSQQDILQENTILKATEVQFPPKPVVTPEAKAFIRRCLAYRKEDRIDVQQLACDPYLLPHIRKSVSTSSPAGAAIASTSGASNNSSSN
Chain of SGK2 (Q9HBY8 whole entry): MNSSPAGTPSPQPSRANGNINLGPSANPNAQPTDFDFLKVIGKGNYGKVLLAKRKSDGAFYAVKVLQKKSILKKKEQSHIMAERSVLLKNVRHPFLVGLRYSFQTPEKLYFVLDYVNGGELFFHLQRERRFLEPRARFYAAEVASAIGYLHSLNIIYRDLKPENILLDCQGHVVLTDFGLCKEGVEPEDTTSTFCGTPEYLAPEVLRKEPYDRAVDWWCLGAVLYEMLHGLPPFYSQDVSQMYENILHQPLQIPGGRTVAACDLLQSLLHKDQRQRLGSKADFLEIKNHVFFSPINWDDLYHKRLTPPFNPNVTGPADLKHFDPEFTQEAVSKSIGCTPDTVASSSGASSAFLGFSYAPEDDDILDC
Chain of CDK7 (P50613 whole entry): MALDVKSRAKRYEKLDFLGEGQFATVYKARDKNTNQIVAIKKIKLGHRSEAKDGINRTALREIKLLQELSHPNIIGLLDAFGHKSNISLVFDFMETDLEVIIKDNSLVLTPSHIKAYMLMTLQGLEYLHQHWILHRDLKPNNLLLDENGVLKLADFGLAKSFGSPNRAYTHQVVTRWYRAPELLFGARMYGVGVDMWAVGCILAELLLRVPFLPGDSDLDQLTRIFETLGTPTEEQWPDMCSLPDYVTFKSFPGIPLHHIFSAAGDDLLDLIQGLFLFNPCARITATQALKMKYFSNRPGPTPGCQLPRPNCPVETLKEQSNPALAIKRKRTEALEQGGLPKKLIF
Chain of MKK7 (O14733 whole entry): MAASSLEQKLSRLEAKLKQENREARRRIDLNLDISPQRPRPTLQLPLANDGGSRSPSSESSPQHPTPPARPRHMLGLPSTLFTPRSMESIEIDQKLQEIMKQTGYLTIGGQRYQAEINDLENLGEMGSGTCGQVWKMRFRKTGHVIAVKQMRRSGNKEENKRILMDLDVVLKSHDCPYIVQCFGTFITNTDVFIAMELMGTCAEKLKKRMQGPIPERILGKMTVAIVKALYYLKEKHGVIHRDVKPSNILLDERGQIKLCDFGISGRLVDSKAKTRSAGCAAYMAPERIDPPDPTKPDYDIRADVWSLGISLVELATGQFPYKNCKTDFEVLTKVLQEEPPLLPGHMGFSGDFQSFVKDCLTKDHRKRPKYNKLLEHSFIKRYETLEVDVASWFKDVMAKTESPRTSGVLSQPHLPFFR

Structure (SMILES): O=C1NCCCCCNc2nc(c3ccccc3n2)Nc2cc1[nH]n2 [21c, (Z)-3^1H-2,5,11-triaza-1(4,2)-quinazolina-3(3,5)-pyrazolacycloundecaphan-4-one]
- 21c Remaining activity, percent of control [%] (ACVR2A): 95.3%
- 21c Remaining activity, percent of control [%] (BTK): 96.6%
- 21c Remaining activity, percent of control [%] (CAMK2B): 88.8%
- 21c Remaining activity, percent of control [%] (CDK10): 85.1%
- 21c Remaining activity, percent of control [%] (CDK6/CycD3): 85.3%
- 21c Remaining activity, percent of control [%] (CDK7): 112.5%
- 21c Remaining activity, percent of control [%] (CK1d): 98.8%
- 21c Remaining activity, percent of control [%] (DAPK3): 107.0%
- 21c Remaining activity, percent of control [%] (EIF2AK2): 75.1%
- 21c Remaining activity, percent of control [%] (EPHB3): 105.4%
- 21c Remaining activity, percent of control [%] (FGR): 75.3%
- 21c Remaining activity, percent of control [%] (GRK2): 96.7%
- 21c Remaining activity, percent of control [%] (IGF1R): 102.9%
- 21c Remaining activity, percent of control [%] (IRAK4): 87.3%
- 21c Remaining activity, percent of control [%] (MAPKAPK5): 110.4%
- 21c Remaining activity, percent of control [%] (MARK1): 96.0%
- 21c Remaining activity, percent of control [%] (MEKK2): 103.5%
- 21c Remaining activity, percent of control [%] (MEKK3): 105.8%
- 21c Remaining activity, percent of control [%] (MELK): 47.0%
- 21c Remaining activity, percent of control [%] (MINK1): 70.0%
- 21c Remaining activity, percent of control [%] (MKK7): 100.3%
- 21c Remaining activity, percent of control [%] (MST2): 95.6%
- 21c Remaining activity, percent of control [%] (MYLK3): 86.4%
- 21c Remaining activity, percent of control [%] (PAK1): 94.9%
- 21c Remaining activity, percent of control [%] (PAK6): 95.0%
- 21c Remaining activity, percent of control [%] (SGK2): 105.5%
- 21c Remaining activity, percent of control [%] (SRPK1): 101.4%
- 21c Remaining activity, percent of control [%] (TGFBR1): 124.6%
- 21c Remaining activity, percent of control [%] (TLK2): 95.4%
- 21c Remaining activity, percent of control [%] (TXK): 98.2%
- 21c Remaining activity, percent of control [%] (ZAP70): 108.6%
